Reference: publication PMC9312238, “Novel Organoselenium Redox Modulators with Potential Anticancer, Antimicrobial, and Antioxidant Activities” (Antioxidants, 2022)
Values after ≈ are worked out from the molar mass of the structure shown. Read-outs that look alike come from different tables or passages of the source.

Key:
Escherichia coli = assay: MIC by microdilution, E. coli; assay type: cell-based
Method: (§1) The antimicrobial activities of the OSe compounds were evaluated against C. albicans yeast, as well as E. coli and S. bacteria, employing the agar well diffusion assay. Furthermore, the MICs (in µM) were determined by the microdilution method according to the reported protocol. More details are in the Supporting Information.
1.1. The biological assays
1.1.1. The anticancer activity
The breast adenocarcinoma (MCF-7), Hepatocellular carcinoma (HEPG-2), and nor-mal fibroblast (WI-38) cells were obtained from ATCC via Holding company for biological products and vaccines (VACSERA), Cairo, Egypt. The reagents RPMI-1640 medium, MTT, DMSO, and fetal bovine serum was obtained from Sigma Aldrich. Dulbecco’s modified Eagle’s medium was used as the culture medium for the cells, and the cytotoxicity was evaluated using the reported MTT assay. […]
Cell lines were cultured in RPMI-1640 medium with 10% fetal bovine serum. […] The colorimetric assay is measured and recorded at an absorbance of 570 nm using a plate reader (EXL 800, USA). The percentage of the relative cell viability was calculated as (A570 of treated samples/A570 of the untreated sample) X 100. […]
The antimicrobial activities of the OSe compounds were evaluated against C. albicans yeast as well as E. coli gram-negative and S. aureus gram-positive bacteria employing the agar well diffusion assay. […]

Candida albicans = assay: MIC by microdilution, C. albicans; assay type: cell-based; conditions: read-out: MIC (μM) C. albicans
Method: as §1, with “Information. […]” for “Information.”
1.1.1. The antimicrobial activity
The antimicrobial activities of the OSe compounds were evaluated against C. albicans yeast as well as E. coli gram-negative and S. aureus gram-positive bacteria employing the agar well diffusion assay. Briefly, a concentration of 1 mM was prepared for each compound by dissolving in DMSO. Paper discs of standard size […] were steri-lized in an autoclave and soaked in 20 µL of the test compounds, and placed in the Petri dishes, which in turn contain a nutrient media (agar 20 g, peptone 5 g, and beef extract 3 g) seeded with the dedicated strain. Incubation lasted for 24 h at 36
Furthermore, the MICs (in µM) were determined by the microdilution method according to the reported protocol. […]
Inhibition%= (Ablank-Asample)/(Ablank)*100. (1)

Row | Compound | MIC (Escherichia coli; Escherichia coli, read-out: MIC (μM) E. coli) [µM] | MIC (Candida albicans; Candida albicans) [µM] | MIC (μM) E. coli (Escherichia coli; microdilution) [µM] | MIC (Candida albicans; microdilution) [µM]
1 | Nc1ccc([Se]CC(=O)N[C@@H](Cc2c[nH]c3ccccc23)C(=O)O)cc1 [Compound 6, (2-((4-aminophenyl)selanyl)acetyl)tryptophan] | 1 (≈ 0.416 µg/mL) | 8 (≈ 3.33 µg/mL) | – | –
2 | 2-((4-(2-(3-hydroxynaphthalen-1(4H)-ylidene)hydrazinyl)phenyl)selanyl)-N-phenylacetamide [Compound 9] | – | – | 0.5 | 2
